# Reference: US20180186769A1, “6-AMINO-5-FLUORO-5-(FLUOROMETHYL)-2,3,4,5-TETRAHYDROPYRIDIN-2-YL-PHENYL-5-(METHOXY-D3)-PYRAZINE-2-CARBOXAMIDES AND FLUORINATED DERIVATIVES THEREOF AS BACE1 INHIBITORS” (H. Lundbeck A/S, priority 2016, published 2018)
# pKi: −log10 of the molar value.
# Key:
# Aβ40 = assay: Aβ levels in rat brain and plasma following BACE1 inhibition (Aβ40 ELISA); type: in vivo, Sprague Dawley rats; conditions: p.o.
# Procedure: Assessment of […] in rat brain and plasma following BACE1 inhibition.
# Young adult Male Sprague Dawley rats of approximately 250 g weight were purchased from Charles River and received vehicle (2.5% HP betaCD+1M MeSO4, pH 2.5) or 0-40 mg/kg of test compounds (dissolved in vehicle) by oral gavage (p.o). The compounds are dosed at a volume of 5 ml/kg. Cohorts of 5-10 animals were established for each treatment condition.
# Studies were set up as acute dose response treatment studies were samples were taken at T=180 minutes after initial dosing, or as 12 h or 24 h timecourse treatment studies. At the end of the test period, the animals were stunned and decapitated with a guillotine. Trunk-blood was sampled in EDTA coated tubes after decapitation of the animal. The blood was centrifuged at 2200G at 4° C. for 15 minutes and the plasma was collected and frozen at −80° C. The blood was aliquoted for Aβ ELISA and DMPK analysis. Immediately following sacrifice, the brain was extracted and split into 2 halves. The left half was dissected; with the front forebrain taken for Aβ ELISA and the remainder used for DMPK analysis. These samples were also snap frozen on dry ice and stored at −80° C. until use for analysis. The right hemibrains were snap frozen on dry ice and stored at −80° C. for independent confirmatory Aβ ELISA evalution.
# The cortex samples were thawed slightly on wet ice before they were homogenized with a small volume dispersing instrument (T10 basic ULTRA-TURRAX®) which was set at speed 5 for approximately 5-7 sec. The tissue was processed in a 10 times volume of the weight, for example 100 mg of tissue was homogenized in […] of Homogenization buffer. Homogenization buffer: 50 ml Milli Q water+[…]+0.2% Diethylamin (DEA)+1 tablet of Complete Protease inhibitor cocktail+[…] 4-(2-aminoethyl) benzenesulfonyl fluoride hydrochloride irreversible serine protease inhibitor (AEBSF).
# After homogenization 450 μL aliquots of the samples are collected into a 1.5 ml Eppendorf tube and placed on wet ice, 0.5% NP-40 (50 ul) was added to all samples and then they were incubated on ice for 30 min. After which all samples were sonicated using an Ultrasonic homogenizer with 20 kHz homogeneous sound (SONOPLUS HD2070, Bandelin Electronic) 10 pulse set at 12-13% power to extract all the Aβ species. The samples were then centrifuged (Ole Dich 157 MPRF Micro centrifuge) at 20000G for 20 minutes at 4° C. After centrifugation […] of the supernatant was pipetted into 600 μL microtubes tubes and neutralized with 15 µL of 1M Tris-HCL buffer.
# WAKO 294-62501 Human/Rat Abeta amyloid-40 kit was used for all ELISA analyses. 30 μL plasma samples or 30 μL of the cortex supernatants generated as described above were placed in 600 μL microtubes tubes on wet ice. To this 30 μL of 8M Urea (AppliChem A1049, 9025) are added to generate a 2-fold dilution. Both plasma and cortex supernatants are incubated on ice for 30 min. Standard rows were prepared from the standard peptide stock provided in the kit and standard diluent containing 1.6M Urea (200 μL 8M Urea+800 μL of standard diluent) and 0.8M Urea (400 μL 8M Urea+[…] Standard diluent). A serial 2-fold dilution of Aβ40 from 100 pmol/ml to 0 pmol/L was prepared for the assay.
# After incubation with urea, all samples were further diluted by addition of 5 times standard diluent from the Kit. This was done by adding 240 μL Standard Diluent to 60 μL sample/urea mixture, which was then mixed well. 100 μL of each diluted sample was pipetted into designated wells of the ELISA plate in duplicates. The plate was then covered and incubated overnight at 4° C. The following day, the ELISA kit was brought to room temperature before use. The incubated plate was washed 5 times with the 20× washing solution diluted in Milli Q water. 100 μL HRP-conjugate was applied to each well, and the plate was covered and incubates at 4° C. for 1 hr. The wash was repeated again for 5 times. […]
# BACE1 = BACE1 (Homo sapiens, UniProt P56817); assay: BACE1 binding assay (SPA-based); set-up: biotin (biotinylated form); made in house; host or cells: Freestyle HEK293 cells; conditions: pH 4.5, 10 nM radioligand
# Procedure: The binding assay was performed as SPA-based assay using a biotinylated form of human BACE1 recombinantly expressed and subsequently purified from Freestyle HEK293 cells. The binding assay was run in a 50 mM sodium acetate buffer, pH 4.5 containing 50 mM NaCl and 0.03% Tween-20 in white clear bottom 384 plates (Corning #3653). […] The plates were incubated for one hour at room temperature and counted in a Wallac Trilux counter. Total and non-specific binding were determined using buffer and 1 μM (final concentration) of the high affinity BACE1 reference inhibitor (S)-6-[3-chloro-5-(5-prop-1-ynyl-pyridin-3-yl)-thiophen-2-yl]-2-imino-3,6-dimethyl-tetrahydro-pyrimidin-4-one, respectively. For each test compound, a IC50 value (the concentration mediating 50% inhibition of the specific binding of the radioligand) was determined from concentration-response curve and used to calculate the Ki from the equation Ki=IC50/(1+L/Kd), where L and Kd are the final concentration of the radioligand used in the assay and the dissociation constant of the radioligand, respectively. The Kd of the radioligand was determined from saturation binding experiments.
# Sequence of BACE1 (P56817 46-501): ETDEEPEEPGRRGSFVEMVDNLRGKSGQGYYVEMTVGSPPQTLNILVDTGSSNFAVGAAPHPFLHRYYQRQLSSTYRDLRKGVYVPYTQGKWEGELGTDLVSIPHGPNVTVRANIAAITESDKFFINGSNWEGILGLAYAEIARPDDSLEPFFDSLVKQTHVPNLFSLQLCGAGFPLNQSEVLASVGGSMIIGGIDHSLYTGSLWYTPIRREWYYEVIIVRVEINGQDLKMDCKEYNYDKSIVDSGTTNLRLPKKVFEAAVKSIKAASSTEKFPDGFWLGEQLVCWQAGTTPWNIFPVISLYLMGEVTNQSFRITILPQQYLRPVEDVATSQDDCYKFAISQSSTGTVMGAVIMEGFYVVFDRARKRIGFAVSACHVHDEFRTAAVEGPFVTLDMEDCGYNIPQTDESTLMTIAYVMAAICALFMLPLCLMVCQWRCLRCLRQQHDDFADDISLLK
smiles,measurement,setting,value
"[2H]C([2H])([2H])Oc1cnc(C(=O)Nc2ccc(F)c([C@]3(C)CC[C@@](F)(CF)C(N)=N3)c2)cn1 [Example 1, N-(3-((2S,5S)-6-amino-5-fluoro-5-(fluoromethyl)-2-methyl-2,3,4,5-tetrahydropyridin-2-yl)-4-fluorophenyl)-5-(methoxy-d3)pyrazine-2-carboxamide]",Aβ40 reduction (%) brain,"Aβ40; 10 mg/kg, 0.5 h",−0.3%
same,Aβ40 reduction (%) plasma,"Aβ40; 10 mg/kg, 0.5 h",−0.4%
same,Aβ40 reduction (%) brain,"Aβ40; 10 mg/kg, 1 h",17.2%
same,Aβ40 reduction (%) plasma,"Aβ40; 10 mg/kg, 1 h",29.5%
same,Aβ40 reduction (%) brain,"Aβ40; 10 mg/kg, 3 h",38.3%
same,Aβ40 reduction (%) plasma,"Aβ40; 10 mg/kg, 3 h",21.7%
same,Aβ40 reduction (%) brain,"Aβ40; 10 mg/kg, 6 h",39.4%
same,Aβ40 reduction (%) plasma,"Aβ40; 10 mg/kg, 6 h",15.5%
same,Aβ40 reduction (%) brain,"Aβ40; 10 mg/kg, 12 h",13.7%
same,Aβ40 reduction (%) plasma,"Aβ40; 10 mg/kg, 12 h",20.7%
same,Aβ40 reduction (%) brain,"Aβ40; 20 mg/kg, 0.5 h",14.7%
same,Aβ40 reduction (%) plasma,"Aβ40; 20 mg/kg, 0.5 h",36.5%
same,Aβ40 reduction (%) brain,"Aβ40; 20 mg/kg, 1 h",29.7%
same,Aβ40 reduction (%) plasma,"Aβ40; 20 mg/kg, 1 h",41.4%
same,Aβ40 reduction (%) brain,"Aβ40; 20 mg/kg, 3 h",38.5%
same,Aβ40 reduction (%) plasma,"Aβ40; 20 mg/kg, 3 h",34.5%
same,Aβ40 reduction (%) brain,"Aβ40; 20 mg/kg, 6 h",42.6%
same,Aβ40 reduction (%) plasma,"Aβ40; 20 mg/kg, 6 h",36.9%
same,Aβ40 reduction (%) brain,"Aβ40; 20 mg/kg, 12 h",34.5%
same,Aβ40 reduction (%) plasma,"Aβ40; 20 mg/kg, 12 h",41.3%
same,Aβ40 reduction (%) brain,"Aβ40; 40 mg/kg, 0.5 h",39.8%
same,Aβ40 reduction (%) plasma,"Aβ40; 40 mg/kg, 0.5 h",43.0%
same,Aβ40 reduction (%) brain,"Aβ40; 40 mg/kg, 1 h",43.9%
same,Aβ40 reduction (%) plasma,"Aβ40; 40 mg/kg, 1 h",47.8%
same,Aβ40 reduction (%) brain,"Aβ40; 40 mg/kg, 3 h",50.6%
same,Aβ40 reduction (%) plasma,"Aβ40; 40 mg/kg, 3 h",47.1%
same,Aβ40 reduction (%) brain,"Aβ40; 40 mg/kg, 6 h",59.5%
same,Aβ40 reduction (%) plasma,"Aβ40; 40 mg/kg, 6 h",49.9%
same,Aβ40 reduction (%) brain,"Aβ40; 40 mg/kg, 12 h",57.7%
same,Aβ40 reduction (%) plasma,"Aβ40; 40 mg/kg, 12 h",41.5%
same,pKi,BACE1,7.77
